Measurements taken from PMC8219695 (Nature Communications, 2021).
Values joined by “and” are separate entries in the source; they are usually repeats but may differ in a detail not shown here. Identical values can stand only once.

Legend:
[1] = biological target: T1, mMOR (Mus musculus, UniProt P42866); assay: [125I]BNtxA radioligand competition binding, mouse MOR; settings: mean ± SEM, n = 3; [125I]BNtxA; read-out: Ki ± SEM mMOR
T1 construct: signal peptide (heterologous, not specified) (N); expressed in transfected cells; pcDNA3.1(+) construct made in house

[2] = biological target: T2, mKOR (Mus musculus, UniProt P33534); assay: [125I]BNtxA radioligand competition binding, mouse KOR; settings: mean ± SEM, n = 3; [125I]BNtxA; read-out: Ki ± SEM mKOR
T2 construct: expressed in transfected cells; membranes

[3] = biological target: T3, mDOR (Mus musculus, UniProt P32300); assay: [125I]BNtxA radioligand competition binding, mouse DOR; settings: mean ± SEM, n = 3; [125I]BNtxA; read-out: Ki ± SEM mDOR
T3 construct: expressed in transfected cells

[4] = biological target: T1, mMOR; assay: CAMYEL BRET cAMP agonist assay at mMOR; type: cell-based; settings: mMOR; for cAMP %: single replicates, source data Fig 6b, listed as C11-Cl-7OH (23)
[5] = biological target: T4, hMOR (Homo sapiens, UniProt P35372); assay: CAMYEL BRET cAMP agonist assay at hMOR; type: cell-based; settings: for cAMP %: hMOR, single replicates, source data Fig 6c, listed as C11-Cl-7OH (23)
T4 construct: expressed in transfected cells; plasmid a gift from Dr. Nevin Lambert

[6] = biological target: T1, mMOR; assay: CAMYEL BRET antagonism assay at mMOR (inhibition of DAMGO); type: cell-based; settings: for Antagonist activity at mMOR, raw signal (single replicate values): source data of Fig 8a and Table 5, listed as C11-Cl-7OH (23);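 for Antagonist activity at mMOR, raw signal (single replicate values): BRET signal rises as cAMP falls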
[7] = biological target: T4, hMOR; assay: cell-based
[8] = biological target: T3, mDOR; assay: CAMYEL BRET cAMP agonist assay at mDOR; type: cell-based; settings: Log[drug] (M) -5; single replicate values, Supplementary Figure 7B
[9] = Log[drug] (M) -13, cAMP inhibition as % of DAMGO

SMILES: CC[C@@H]1CN2CC[C@@]3(O)C(=Nc4cc(Cl)cc(OC)c43)[C@@H]2C[C@@H]1/C(=C\OC)C(=O)OC [11-Cl-7OH (23), 11-Cl-7OH]
- Ki [1]: 27.1 ± 1.1 nM
- Ki [2]: 30.7 ± 11.4 nM
- Ki [3]: 47.2 ± 2.4 nM
- cAMP % ([4]; Log[drug] (M) -5): 6.435% and 6.384% and 16.5545% and 12.4027% and 11.5958% and 9.171% and 11.6377% and 17.8045% and 15.1324%
- cAMP % ([4]; Log[drug] (M) -6): 18.6614% and 4.689% and 11.9914% and 8.341% and 7.121% and 7.194% and 11.7839% and 2.54% and 3.967%
- cAMP % ([4]; Log[drug] (M) -7): 11.7629% and -2.4507% and 10.3244% and 12.5872% and 11.439% and 4.6796% and 1.65% and 1.082% and 0.9258%
- cAMP % ([4]; Log[drug] (M) -8): -5.129% and 6.21% and -1.081% and 7.275% and 2.298% and 9.574% and 9.25% and -4.751% and 0.6222%
- cAMP % ([4]; Log[drug] (M) -9): 2.051% and -8.733% and 10.4525% and -1.843% and 3.825% and 12.7464% and 9.611% and 1.736% and 14.7967%
- cAMP % ([4]; Log[drug] (M) -10): -1.957% and 12.894% and -4.791% and 0.07219% and 0.3304% and -0.4025% and -1.324% and -2.101% and 5.511%
- cAMP % ([4]; Log[drug] (M) -11): 22.2971% and -9.038% and -0.05376% and 20.8701% and 7.205% and 16.4135% and 3.836% and -1.905% and 3.566%
- cAMP % [4, 9]: -0.5682% and 13.1006% and 15.0829% and 7.325% and 4.046% and 5.291% and 0.9156% and 1.033% and -1.949%
- Emax ([4]; maximal inhibitory effect on cAMP levels relative to DAMGO): 13%
- EC50 ([4]; n = 3, read-out: EC50): 841 nM
- EC50 [5]: 717 nM
- Emax [5]: 23%
- cAMP % ([5]; Log[drug] (M) -5): 24.2611% and 22.8658% and 18.7916% and 30.0534% and 27.3903% and 24.7857% and 23.2679% and 13.839% and 17.3142%
- cAMP % ([5]; Log[drug] (M) -6): 9.687% and 7.44% and 12.4984% and 21.3658% and 16.0104% and 20.3589% and 22.2511% and 5.161% and 10.3498%
- cAMP % ([5]; Log[drug] (M) -7): 10.7608% and 2.692% and 16.2864% and 16.6401% and 9.757% and 17.1458% and 11.7292% and -1.4445% and 4.302%
- cAMP % ([5]; Log[drug] (M) -8): -0.5618% and -5.878% and 6.44% and 1.224% and 16.3686% and 4.4% and 2.431% and 4.114% and 14.2353%
- cAMP % ([5]; Log[drug] (M) -9): 10.2691% and 5.0211% and 7.383% and 19.7872% and -6.277% and -5.837% and 8.258% and 7.437% and 22.4848%
- cAMP % ([5]; Log[drug] (M) -10): 8.636% and -0.2251% and 3.667% and 1.365% and 3.739% and -5.1037% and -3.2997% and -3.028% and 15.0493%
- cAMP % ([5]; Log[drug] (M) -11): 5.568% and -0.09872% and -1.208% and 11.7024% and 0.1582% and 4.468% and 2.344% and 1.001% and -3.345%
- cAMP % [5, 9]: 15.4388% and 3.989% and -0.7984% and 3.857% and -0.6743% and 5.111% and -4.4777% and 4.879% and 4.064%
- IC50 [6]: 320 nM
- Antagonist activity at mMOR, raw signal (single replicate values) ([6]; Log[drug] (M) -5): 0.05136 and 0.05514 and 0.02734 and 0.03399 and 0.05638 and 0.03174 and 0.0604 and 0.04123 and 0.04243
- Antagonist activity at mMOR, raw signal (single replicate values) ([6]; Log[drug] (M) -6): 0.06527 and 0.08059 and 0.08038 and 0.07596 and 0.06694 and 0.07308 and 0.08894 and 0.05009 and 0.07552
- Antagonist activity at mMOR, raw signal (single replicate values) ([6]; Log[drug] (M) -7): 0.171 and 0.1656 and 0.1405 and 0.1722 and 0.164 and 0.1548 and 0.1502 and 0.1538 and 0.167
- Antagonist activity at mMOR, raw signal (single replicate values) ([6]; Log[drug] (M) -8): 0.2056 and 0.1941 and 0.1944 and 0.1853 and 0.1938 and 0.208 and 0.1628 and 0.1712 and 0.1714
- Antagonist activity at mMOR, raw signal (single replicate values) ([6]; Log[drug] (M) -9): 0.1978 and 0.1907 and 0.2036 and 0.185 and 0.2114 and 0.2034 and 0.1755 and 0.1681 and 0.1723
- Antagonist activity at mMOR, raw signal (single replicate values) ([6]; Log[drug] (M) -10): 0.2063 and 0.2294 and 0.2076 and 0.2027 and 0.2013 and 0.2029 and 0.1793 and 0.1909 and 0.175
- Antagonist activity at mMOR, raw signal (single replicate values) ([6]; Log[drug] (M) -11): 0.1963 and 0.2104 and 0.2086 and 0.1881 and 0.2054 and 0.206 and 0.1763 and 0.1632 and 0.1788
- IC50 [7]: 920 nM
- Agonist activity of 7OH analogs at mDOR [8]: 26.1167 and 29.2367 and 36.3699 and 32.2405 and 24.7678 and 31.8502 and 20.8066 and 14.4196
